From US20240083933A1, “DISACCHARIDES FOR TREATING BONE DISEASES” (UNIVERSITE DE PICARDIE JULES VERNE, priority 2020, published 2024)

What was measured:
MC3T3-E1 cells = assay: Calcium assay (pro-calcifying activity) on mouse pre-osteoblastic cells; type: cell-based; details: for production of calcium by the MC3T3-E1 cells (calcium dosage in culture medium): 9 days, 4 mM Pi, 30 μM compound, vs control+Pi (FIG. 1); for increase in calcification relative to the mineralizing medium: MC3T3-E1, 25 days
Experimental: FIG. 1 represents the calcium dosage in the MC3T3-E1 culture medium (in […] of protein per well) after 9 days of exposure of these cells to 4 mM of Pi ([…]) (control+Pi) and 4 mM of Pi in the presence of 30 μM of each of the compounds referenced DP2SNA, DP2NA, DP2K and DP2S;
(§1) For all experiments, a mouse pre-osteoblastic cell line (MC3T3-E1, ATCC) and human primary osteoblastic cells (HOb, Promocell) were used. The mouse pre-osteoblastic cells were cultured in 75 cm^2 flasks, containing 15 mL of α-MEM medium (M4526, SIGMA) and 10% fetal calf serum (FCS), containing 1% Penicillin/Streptomycin antibiotics and 1% glutamine. Similarly, human HOb cells were cultured in 75 cm 2 flasks containing 15 mL of proliferation medium (Human Osteoblast Proliferation Medium, PromoCell). The cells are maintained in the oven at 37° C., with 5% CO2 and 90% humidity. The medium was changed every three days.
(§2) MC3T3-E1 cells were seeded in 6-well plates at 63,700 cells/well to be treated in order to extract RNA or for alkaline phosphatase enzymatic activity assay and in 48-well plates for the calcium assay at 5250 cells/well. The HOb cells were seeded at 182,000 cells/well in 6-well plates for the extraction of RNA or for the alkaline phosphatase enzymatic activity assay; at 15,000 cells/well in 48-well plates for the calcium assay; at 10,000 cells/well in 48-well plates for the MTT test or the WST-1 test and at 100,000 cells/well in 6-well plates for the protein extraction or for the fluorescence.
(§3) In order to induce the mineralization, the MC3T3-E1 cells were treated with α-MEM medium containing 5% FCS to which 10 mM of β-glycerophosphate and 50 μg/mL of ascorbic acid are added. The HOb cells were treated with the “Osteoblast mineralization medium” (Promocell). […] After filtration, the cells were treated with the respective media (500 μL per well of the 48-well plate and 2 mL per well of the 6-well plate).
The release of calcium in the culture medium of mouse pre-osteoblastic cells (MC3T3-E1) has been studied.
An increase in calcification was observed, relative to the mineralizing medium (FIG. 2), in the presence of DP2R0 at 15 μM (40±2%), at 30 μM (28±18%) and at 50 μM (40±28%), and DP2NA at 15 μM (15±14%), at 30 μM (33±12%) and at 50 μM (10±19%).

HOb cells = assay: Calcium assay (pro-calcifying activity, mineralization) on human primary osteoblastic cells; type: cell-based; details: for increase in calcification relative to the mineralizing condition: HOb
Experimental: as §1, §2, §3
The calcification has also been studied on human osteoblastic cells (Hob, PromoCell, Heidelberg, Germany). They are isolated from femoral trabecular bone tissues.

[1] = Acetate migration DP2/DP2′ in solution (stability); type: physicochemical; details: water, after 44 days
Experimental: The compound DP2′ was extracted from the DP2-DP2′ mixture which is formed when the compound DP2 is dissolved in water. The compound DP2′ has been separated by preparative HPLC chromatography with water as elution solvent.
The inventors have observed that when the compound DP2′ was in water, the delocalization of the acetate group was also present, but with very slow kinetics compared to the DP2→DP2′ reaction. Thus, a solution of DP2′ in water which is left to rest contains, after 44 days, 10 to 15% of DP2. The DP2′ therefore remains alone in the water for a given duration which is quite long. It is therefore possible to test the biological effect of DP2′ in solution in water.
Similarly, the inventors have observed that the kinetics of the DP2→DP2′ reaction is such that it is also possible to test the biological activity of the compound DP2 alone after extraction of the formed compound DP2′. Thus, the two compounds DP2 and DP2′ can coexist or not in water for a given duration.
In methanol, for example, the compound DP2 is therefore alone.
There is about ⅔ of DP2R2 for ⅓ of DP2′. The compound DP2′ comes from a migration of the acetate group (R2) on the 30H position. The compound DP2′ could be isolated and synthesized as previously indicated. […]

CCCO[C@H]1O[C@H](COS(=O)(=O)[O-])[C@@H](O[C@@H]2O[C@H](CO)[C@@H](O)[C@H](O)[C@H]2NC(C)=O)[C@H](O)[C@H]1OC(C)=O.[Na+] [DP2S, n-propyl, 2-0-acetyl-6-O-sulfo-α-D-Glucopyranoside, 4-O-(2-acetamido-2-desoxy-β-D-glucopyranosyl), monosodium salt]
production of calcium by the MC3T3-E1 cells (calcium dosage in culture medium) (MC3T3-E1 cells): significantly inhibits the expression of calcium

CCCO[C@H]1OC(CO)[C@@H](O[C@@H]2OC(CO)[C@@H](O)C(O)C2NC(C)=O)C(O)C1O (stereo partly drawn) [DP2NA, n-propyl, α-D-Glucopyranoside, 4-O-(2-acetamido-2-deoxy-β-D-glucopyranosyl)]
production of calcium by the MC3T3-E1 cells (calcium dosage in culture medium) (MC3T3-E1 cells): increase the production of calcium | increase in calcification relative to the mineralizing medium (MC3T3-E1 cells; 15 μM): 15±14% | increase in calcification relative to the mineralizing medium (MC3T3-E1 cells; 30 μM): 33±12% | increase in calcification relative to the mineralizing medium (MC3T3-E1 cells; 50 μM): 10±19% | increase in calcification relative to the mineralizing condition (HOb cells; 14 days, 15 μM): 45±42% | increase in calcification relative to the mineralizing condition (HOb cells; 14 days, 30 μM): 44±7% | increase in calcification relative to the mineralizing condition (HOb cells; 14 days, 50 μM): 35±8% | mineralization of the HOb cells relative to the mineralizing medium alone (HOb cells; lower concentrations 5, 7.5 and 10 μM (FIG. 4)): decrease in mineralization

CCCOC1OC(CO)C(OC2OC(CO)C(O)C(O)C2NC(C)=O)C(OC(C)=O)C1O [DP2′, n-propyl, 3-0-acetyl-α-D-Glucopyranoside, 4-O-(2-acetamido-2-deoxy-β-D-glucopyranosyl)]
DP2 content of a solution of DP2′ in water left to rest [1]: 10 to 15% | percentage of mineralization of the HOb cells (HOb cells; 14 days, mineralizing conditions, 30 μM): 143.806±36.657%

CCCO[C@H]1OC(COS(=O)(=O)[O-])[C@@H](O[C@@H]2OC(CO)[C@@H](O)C(O)C2NC(C)=O)C(O)C1O.[Na+] (stereo partly drawn) [DP2SNA, n-propyl, 6-O-sulfo-α-D-Glucopyranoside, 4-O-(2-acetamido-2-desoxy-β-D-glucopyranosyl), monosodium salt]
production of calcium by the MC3T3-E1 cells (calcium dosage in culture medium) (MC3T3-E1 cells): increase the production of calcium
